Laboratory results published in ChEMBL document CHEMBL6074715, “Discovery of pyridine-based derivatives as FLT3 inhibitors for the treatment of acute myeloid leukemia” (Eur J Med Chem, 2025).
Active and inactive are the calls of the source. The rule behind the calls is not given here.

Key:
MOLM-13 [1] = test: Induction of apoptosis in human MOLM-13 cells assessed as late apoptotic cells at 1 uM measured after 48 hrs by annexin-V and PI staining based flow cytometry analysis (reference value: 2.28%); type: functional
[2] = molecular target: Vascular endothelial growth factor receptor 2 (Homo sapiens, UniProt P35968); test: Inhibition of human KDR at 1 uM by Eurofins kinase assay
Sequence of Vascular endothelial growth factor receptor 2 (P35968 whole entry): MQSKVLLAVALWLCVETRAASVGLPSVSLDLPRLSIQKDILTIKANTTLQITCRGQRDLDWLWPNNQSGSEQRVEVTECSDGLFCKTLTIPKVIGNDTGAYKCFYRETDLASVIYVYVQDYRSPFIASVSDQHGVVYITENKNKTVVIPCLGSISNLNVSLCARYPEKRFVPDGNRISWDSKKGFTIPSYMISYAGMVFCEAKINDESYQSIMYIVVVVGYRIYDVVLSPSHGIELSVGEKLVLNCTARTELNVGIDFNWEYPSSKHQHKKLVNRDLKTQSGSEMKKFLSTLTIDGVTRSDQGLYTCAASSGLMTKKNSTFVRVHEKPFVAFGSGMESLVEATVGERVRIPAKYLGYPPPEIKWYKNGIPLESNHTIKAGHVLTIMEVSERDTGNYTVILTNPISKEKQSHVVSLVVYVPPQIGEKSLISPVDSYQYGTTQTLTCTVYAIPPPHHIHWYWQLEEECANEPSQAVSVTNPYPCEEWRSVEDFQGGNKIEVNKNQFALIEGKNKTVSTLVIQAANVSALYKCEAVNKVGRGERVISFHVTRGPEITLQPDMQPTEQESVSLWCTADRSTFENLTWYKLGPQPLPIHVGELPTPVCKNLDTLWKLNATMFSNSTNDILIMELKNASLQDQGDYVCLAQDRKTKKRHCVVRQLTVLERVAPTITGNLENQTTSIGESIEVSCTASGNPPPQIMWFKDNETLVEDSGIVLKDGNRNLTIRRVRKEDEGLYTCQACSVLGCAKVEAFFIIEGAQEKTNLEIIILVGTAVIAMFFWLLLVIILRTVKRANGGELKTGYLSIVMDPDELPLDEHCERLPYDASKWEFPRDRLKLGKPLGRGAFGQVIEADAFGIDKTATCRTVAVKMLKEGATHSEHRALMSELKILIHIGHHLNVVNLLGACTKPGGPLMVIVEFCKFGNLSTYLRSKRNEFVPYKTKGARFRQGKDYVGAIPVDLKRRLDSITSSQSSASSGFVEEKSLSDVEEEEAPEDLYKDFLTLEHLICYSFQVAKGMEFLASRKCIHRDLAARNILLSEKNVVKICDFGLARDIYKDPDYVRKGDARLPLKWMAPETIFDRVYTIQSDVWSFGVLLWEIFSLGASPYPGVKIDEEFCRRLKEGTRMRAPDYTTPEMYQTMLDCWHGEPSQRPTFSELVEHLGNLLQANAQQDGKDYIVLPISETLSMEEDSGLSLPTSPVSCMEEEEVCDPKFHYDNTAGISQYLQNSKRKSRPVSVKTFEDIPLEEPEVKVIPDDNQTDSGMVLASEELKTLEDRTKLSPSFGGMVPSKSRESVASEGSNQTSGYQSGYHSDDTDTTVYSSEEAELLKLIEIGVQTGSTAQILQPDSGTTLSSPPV

[3] = molecular target: Receptor-type tyrosine-protein kinase FLT3 (Homo sapiens) (UniProt P36888); test: Inhibition of FLT3 phosphorylation in human MOLM-13 cells at 40 nM incubated for 2 hrs by Western blot analysis relative to control; type: cell-based
[4] = Toxicity in female NSG mouse assessed as effect on spleen at 20 to 40 mg/kg, po measured after 21 days by H and E staining based analysis; type: organism-based; settings: in vivo, 504 h, dose 20-40 mg/kg, time 21 day
MOLM-13 [5] = test: Induction of cell cycle arrest in human MOLM-13 cells assessed as accumulation of cells at G2 phase at 1 uM measured after 48 hrs by PI staining based flow cytometry analysis (reference value: 12.5%); type: functional
[6] = molecular target: Serine/threonine-protein kinase WNK1 (Homo sapiens) (UniProt Q9H4A3); test: Inhibition of human WNK1 at 1 uM by Eurofins kinase assay
[7] = molecular target: Epidermal growth factor receptor (Homo sapiens) (UniProt P00533); test: Inhibition of human EGFR at 1 uM by Eurofins kinase assay
[8] = molecular target: Platelet-derived growth factor receptor alpha (Homo sapiens) (UniProt P16234); test: Inhibition of human PDGFRalpha at 1 uM by Eurofins kinase assay
[9] = Clearance in Sprague-Dawley rat at 5 mg/kg, iv measured upto 48 hrs by LC-MS/MS analysis; type: ADME, organism-based; settings: in vivo
[10] = molecular target: Vascular endothelial growth factor receptor 3 (Homo sapiens, UniProt P35916); test: Inhibition of human FLT4 assessed as residual activity at 1 uM by Eurofins kinase assay relative to control
Sequence of Vascular endothelial growth factor receptor 3 (P35916 whole entry): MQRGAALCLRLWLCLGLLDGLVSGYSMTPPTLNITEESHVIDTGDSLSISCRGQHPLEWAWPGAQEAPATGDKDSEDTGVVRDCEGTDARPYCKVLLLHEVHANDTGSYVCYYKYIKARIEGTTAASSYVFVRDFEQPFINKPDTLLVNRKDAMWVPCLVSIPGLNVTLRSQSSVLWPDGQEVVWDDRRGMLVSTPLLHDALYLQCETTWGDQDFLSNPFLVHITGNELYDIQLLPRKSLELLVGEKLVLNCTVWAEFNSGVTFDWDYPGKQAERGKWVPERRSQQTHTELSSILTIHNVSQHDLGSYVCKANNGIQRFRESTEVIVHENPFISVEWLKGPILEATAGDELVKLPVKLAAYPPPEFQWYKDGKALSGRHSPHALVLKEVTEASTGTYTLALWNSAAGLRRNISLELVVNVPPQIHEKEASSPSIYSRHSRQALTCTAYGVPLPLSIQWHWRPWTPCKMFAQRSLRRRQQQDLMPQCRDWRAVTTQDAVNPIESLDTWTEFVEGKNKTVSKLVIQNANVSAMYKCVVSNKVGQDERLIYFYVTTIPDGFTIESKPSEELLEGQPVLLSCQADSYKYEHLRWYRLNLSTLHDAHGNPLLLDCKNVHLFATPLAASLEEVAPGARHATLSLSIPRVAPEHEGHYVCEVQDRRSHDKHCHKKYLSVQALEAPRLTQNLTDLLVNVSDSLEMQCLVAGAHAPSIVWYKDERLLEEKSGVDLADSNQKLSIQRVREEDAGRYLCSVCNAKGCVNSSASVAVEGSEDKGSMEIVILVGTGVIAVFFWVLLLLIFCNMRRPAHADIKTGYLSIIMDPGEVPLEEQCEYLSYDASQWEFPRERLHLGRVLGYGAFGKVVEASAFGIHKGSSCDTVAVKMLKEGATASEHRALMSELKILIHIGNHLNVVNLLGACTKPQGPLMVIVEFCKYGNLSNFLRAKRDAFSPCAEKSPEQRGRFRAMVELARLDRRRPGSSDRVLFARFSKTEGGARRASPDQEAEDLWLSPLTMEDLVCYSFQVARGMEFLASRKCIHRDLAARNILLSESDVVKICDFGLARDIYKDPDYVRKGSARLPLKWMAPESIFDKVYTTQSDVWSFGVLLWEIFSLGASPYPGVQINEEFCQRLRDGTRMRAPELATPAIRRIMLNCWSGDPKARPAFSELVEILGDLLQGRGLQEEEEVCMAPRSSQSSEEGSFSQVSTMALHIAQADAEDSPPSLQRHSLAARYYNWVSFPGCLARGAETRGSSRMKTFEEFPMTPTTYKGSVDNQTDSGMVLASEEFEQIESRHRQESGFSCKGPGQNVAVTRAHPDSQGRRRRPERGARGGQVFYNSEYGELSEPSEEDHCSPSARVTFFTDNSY

[11] = Toxicity in female NSG mouse assessed as effect on body weight loss at 20 to 40 mg/kg, po measured after 21 days; type: organism-based; settings: in vivo, 504 h, dose 20-40 mg/kg, time 21 day
[12] = molecular target: Platelet-derived growth factor receptor beta (Homo sapiens) (UniProt P09619); test: Inhibition of human PDGFRbeta at 1 uM by Eurofins kinase assay
[13] = test system: Mast/stem cell growth factor receptor Kit (Homo sapiens), P10721 [D816V]; test: Inhibition of human c-kit D816V mutant at 1 uM by Eurofins kinase assay
Sequence of Mast/stem cell growth factor receptor Kit (Homo sapiens), P10721 [D816V] (P10721 whole entry D816V): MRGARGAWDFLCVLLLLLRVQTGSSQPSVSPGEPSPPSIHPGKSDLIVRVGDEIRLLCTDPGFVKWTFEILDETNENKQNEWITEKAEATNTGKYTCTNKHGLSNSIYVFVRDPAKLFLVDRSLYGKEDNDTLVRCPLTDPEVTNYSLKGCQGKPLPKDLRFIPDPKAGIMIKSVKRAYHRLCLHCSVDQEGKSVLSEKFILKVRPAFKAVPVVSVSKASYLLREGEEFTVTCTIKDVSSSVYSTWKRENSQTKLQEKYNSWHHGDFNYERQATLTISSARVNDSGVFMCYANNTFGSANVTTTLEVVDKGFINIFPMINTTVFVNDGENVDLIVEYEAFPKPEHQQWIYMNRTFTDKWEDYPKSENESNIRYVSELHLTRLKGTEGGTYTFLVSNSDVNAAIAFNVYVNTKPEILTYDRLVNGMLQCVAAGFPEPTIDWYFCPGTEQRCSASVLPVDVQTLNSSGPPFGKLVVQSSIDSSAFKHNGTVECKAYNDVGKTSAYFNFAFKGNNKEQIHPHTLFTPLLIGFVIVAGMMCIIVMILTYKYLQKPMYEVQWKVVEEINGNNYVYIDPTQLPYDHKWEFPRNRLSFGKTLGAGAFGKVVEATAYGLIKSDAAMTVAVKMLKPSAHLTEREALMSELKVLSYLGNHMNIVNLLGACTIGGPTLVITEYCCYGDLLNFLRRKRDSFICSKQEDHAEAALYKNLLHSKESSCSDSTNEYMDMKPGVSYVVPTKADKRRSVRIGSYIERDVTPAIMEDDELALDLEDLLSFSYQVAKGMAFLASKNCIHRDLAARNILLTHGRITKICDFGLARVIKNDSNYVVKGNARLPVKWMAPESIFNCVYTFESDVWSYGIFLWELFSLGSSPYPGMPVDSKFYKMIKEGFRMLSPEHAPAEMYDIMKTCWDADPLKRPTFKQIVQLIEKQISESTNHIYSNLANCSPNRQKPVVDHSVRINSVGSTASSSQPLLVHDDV

[14] = molecular target: Mitogen-activated protein kinase 1 (Homo sapiens) (UniProt P28482); test: Inhibition of human MAPK1 at 1 uM by Eurofins kinase assay
[15] = Volume of distribution in Sprague-Dawley rat at 5 mg/kg, iv measured upto 48 hrs by LC-MS/MS analysis; type: ADME, organism-based; settings: in vivo
[16] = molecular target: Wee1-like protein kinase (Homo sapiens) (UniProt P30291); test: Inhibition of human Wee1 at 1 uM by Eurofins kinase assay
Sequence of Wee1-like protein kinase (Homo sapiens) (P30291 whole entry, looked up): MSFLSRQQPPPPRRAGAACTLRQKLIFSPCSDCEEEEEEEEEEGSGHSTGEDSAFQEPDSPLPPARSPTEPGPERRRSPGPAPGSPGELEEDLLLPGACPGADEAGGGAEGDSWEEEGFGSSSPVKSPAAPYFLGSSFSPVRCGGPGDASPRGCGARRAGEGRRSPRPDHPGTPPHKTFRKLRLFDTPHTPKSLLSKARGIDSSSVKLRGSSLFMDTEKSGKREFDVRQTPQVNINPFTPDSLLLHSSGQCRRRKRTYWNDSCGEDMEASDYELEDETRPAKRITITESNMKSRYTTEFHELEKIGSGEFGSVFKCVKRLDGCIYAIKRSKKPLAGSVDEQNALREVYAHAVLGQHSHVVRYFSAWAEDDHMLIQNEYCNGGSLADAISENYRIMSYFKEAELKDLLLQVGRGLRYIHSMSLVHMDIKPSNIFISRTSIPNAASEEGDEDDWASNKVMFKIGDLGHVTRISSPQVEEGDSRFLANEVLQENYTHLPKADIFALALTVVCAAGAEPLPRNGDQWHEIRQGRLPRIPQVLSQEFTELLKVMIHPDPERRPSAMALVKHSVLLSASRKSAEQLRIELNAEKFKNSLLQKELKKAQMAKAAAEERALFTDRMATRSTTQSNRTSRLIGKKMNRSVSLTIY

[17] = molecular target: Dual specificity mitogen-activated protein kinase kinase 1 (Homo sapiens) (UniProt Q02750); test: Inhibition of human MEK1 at 1 uM by Eurofins kinase assay
Sequence of Dual specificity mitogen-activated protein kinase kinase 1 (Homo sapiens) (Q02750 whole entry): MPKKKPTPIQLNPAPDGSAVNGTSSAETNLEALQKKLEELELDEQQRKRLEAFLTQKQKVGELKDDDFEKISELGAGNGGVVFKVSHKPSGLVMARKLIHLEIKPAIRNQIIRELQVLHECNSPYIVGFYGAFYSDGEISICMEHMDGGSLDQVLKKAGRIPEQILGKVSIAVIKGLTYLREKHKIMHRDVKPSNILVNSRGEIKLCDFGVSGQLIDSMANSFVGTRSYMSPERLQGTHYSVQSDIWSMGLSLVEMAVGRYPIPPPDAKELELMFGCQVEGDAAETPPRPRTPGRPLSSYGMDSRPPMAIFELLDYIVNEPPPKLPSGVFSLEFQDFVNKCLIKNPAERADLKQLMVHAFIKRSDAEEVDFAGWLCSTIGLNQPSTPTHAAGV

[18] = Antiproliferative activity against mouse Ba/F3 FLT3-ITD cells assessed as inhibition of cell growth measured after 72 hrs by Celltiter-glo luminescent cell viability assay; type: functional, cell-based
[19] = AUC (0 to t) in Sprague-Dawley rat at 20 mg/kg, po measured upto 48 hrs by LC-MS/MS analysis; type: ADME, organism-based; settings: in vivo
[20] = molecular target: Tyrosine-protein kinase Lck (Homo sapiens) (UniProt P06239); test: Inhibition of human LCK at 1 uM by Eurofins kinase assay
Jurkat = test: Antiproliferative activity against human Jurkat cells assessed as inhibition of cell growth measured after 72 hrs by Celltiter-glo luminescent cell viability assay; type: functional, cell-based
MOLM-13 [21] = test: Induction of apoptosis in human MOLM-13 cells assessed as necrotic cells at 0.3 uM measured after 48 hrs by annexin-V and PI staining based flow cytometry analysis (reference value: 0.087%); type: functional
[22] = molecular target: Macrophage colony-stimulating factor 1 receptor (Homo sapiens, UniProt P07333); test: Inhibition of FMS (unknown origin) preincubated for 10 mins followed by addition of peptide solution by caliper mobility shift assay
MV4-11 = test: Antiproliferative activity against human MV4-11 cells assessed as inhibition of cell growth measured after 72 hrs by Celltiter-glo luminescent cell viability assay; type: functional, cell-based; settings: MV4-11, 72 h
[23] = test system: Mast/stem cell growth factor receptor Kit (Homo sapiens), P10721 [V654A]; test: Inhibition of human c-kit V654A mutant at 1 uM by Eurofins kinase assay
Sequence of Mast/stem cell growth factor receptor Kit (Homo sapiens), P10721 [V654A] (P10721 whole entry V654A): as the sequence (P10721 whole entry D816V) above, with V654A, V816D counted along it

[24] = test system: Receptor-type tyrosine-protein kinase FLT3 (Homo sapiens), P36888 [D835Y]; test: Inhibition of human FLT3 D835Y mutant at 1 uM by Eurofins kinase assay
[25] = MRT (0 to t) in Sprague-Dawley rat at 20 mg/kg, po measured upto 48 hrs by LC-MS/MS analysis; type: ADME, organism-based; settings: in vivo
[26] = Cmax in Sprague-Dawley rat at 5 mg/kg, iv measured upto 48 hrs by LC-MS/MS analysis; type: ADME, organism-based; settings: in vivo
[27] = molecular target: Tyrosine-protein kinase BTK (Homo sapiens) (UniProt Q06187); test: Inhibition of human BTK at 1 uM by Eurofins kinase assay
[28] = molecular target: Angiopoietin-1 receptor (Homo sapiens) (UniProt Q02763); test: Inhibition of human […] at 1 uM by Eurofins kinase assay
[29] = molecular target: Tyrosine-protein kinase receptor UFO (Homo sapiens) (UniProt P30530); test: Inhibition of human AXL at 1 uM by Eurofins kinase assay
BaF3 = test: Antiproliferative activity against mouse BaF3 cells harbouring TEL-VEGFR2 assessed as inhibition of cell growth measured after 72 hrs by Celltiter-glo luminescent cell viability assay; type: functional, cell-based; settings: BaF3, 72 h
MOLM-13 [30] = test: Induction of apoptosis in human MOLM-13 cells assessed as viable cells at 0.3 uM measured after 48 hrs by annexin-V and PI staining based flow cytometry analysis (reference value: 88.7%); type: functional; settings: read-out: Activity
THP-1 = test: Antiproliferative activity against human THP-1 cells harbouring wild type FLT3 assessed as inhibition of cell growth measured after 72 hrs by Celltiter-glo luminescent cell viability assay; type: functional, cell-based; settings: THP-1, 72 h
MOLM-13 [31] = test: Induction of apoptosis in human MOLM-13 cells assessed as early apoptotic cells at 0.3 uM measured after 48 hrs by annexin-V and PI staining based flow cytometry analysis (reference value: 8.92%); type: functional
MOLM-13 [32] = test: Effect on STAT5 level in human MOLM-13 cells at 0.04 to 5 nM measured after 2 hrs by Western blot analysis; type: functional, cell-based; settings: dose 0.04-5 nM
[33] = molecular target: Receptor-type tyrosine-protein kinase FLT3 (Homo sapiens) (UniProt P36888); test: Inhibition of human FLT3 at 1 uM by Eurofins kinase assay
[34] = molecular target: Mitogen-activated protein kinase kinase kinase 1 (Homo sapiens) (UniProt Q13233); test: Inhibition of human MEKK1 at 1 uM by Eurofins kinase assay
MOLM-13 [35] = test: Antiproliferative activity against human MOLM-13 cells assessed as inhibition of cell growth measured after 72 hrs by Celltiter-glo luminescent cell viability assay; type: functional, cell-based; settings: MOLM-13, 72 h

inhibition [2]: inactive
inhibition [3]: 100%
inhibition [6]: inactive
inhibition [7]: inactive
inhibition [8]: inactive
clearance [9]: 1.41 mL/min/kg
Activity [10]: 22%
inhibition [12]: inactive
inhibition [13]: inactive
inhibition [14]: inactive
Vd [15]: 0.301 L/kg
inhibition [16]: inactive
inhibition [17]: inactive
AUC(0-t) at 48 h [19]: 45600 ng·h/mL
inhibition [20]: inactive
IC50 (Jurkat): > 30000 nM
IC50 [22]: 131 nM
IC50 (MV4-11): 130 nM
inhibition [23]: inactive
inhibition [24]: inactive
MRT last at 48 h [25]: 4.49 h
Cmax [26]: 26900 ng/mL
inhibition [27]: inactive
inhibition [28]: inactive
inhibition [29]: inactive
IC50 (BaF3): 290 nM
IC50 (THP-1): 10800 nM
inhibition [33]: inactive
inhibition [34]: inactive
IC50 (MOLM-13 [35]): 62 nM
SMILES: O=C(Nc1ccc(Oc2ccnc(NC(=O)N3CC(O)C3)c2)c(F)c1)c1cn(-c2cccnc2)nn1
Activity (MOLM-13 [1]): 9.44%
Activity [4]: Non-toxic
Activity (MOLM-13 [5]): 4.33%
Activity [11]: Non-toxic
IC50 [18]: 85 nM
Activity (MOLM-13 [21]): 0.063%
viability at 0.3 µM (MOLM-13 [30]): 68.4%
Activity (MOLM-13 [31]): 25%
Activity (MOLM-13 [32]): Not active; Compound Barely Affect Stat5 Level
